Measured values: patent US20250313564A1, “ACIDIC SALT OR CRYSTAL FORM OF NITROGEN-CONTAINING FUSED RING DERIVATIVE INHIBITOR, AND PREPARATION METHOD THEREFOR AND USE THEREOF” (SHANGHAI HANSOH BIOMEDICAL CO., LTD., priority 2022, published 2025)

Assays:
[1] = Hygroscopicity of sample of crystal form A; assay type: physicochemical
Experimental: The free base crystal form A of compound 3 was placed in saturated water vapor at different relative humidities to allow the compound to reach a dynamic equilibrium with the water vapor, and the percentage of weight gain after moisture absorption of the compound after equilibrium was calculated.

[2] = Stability of sample of crystal form A (illumination, high temperature, high humidity); assay type: physicochemical
Experimental: The free base crystal form A of compound 3 of the present invention was taken to prepare a sample, the sample was placed under the conditions of illumination 5000 lx, high temperature 60° C., high humidity 92.5% RH, and high temperature and high humidity 50° C. 75% RH, the 5-day stability and 10-day stability were investigated, a HPLC external standard method was used to determine the content, and a chromatographic peak area normalization method was used to calculate the change in related substances.

[3] = system: luteinizing hormone (LH) in plasma of bilaterally ovariectomized (OVX) rats; assay: Effect on luteinizing hormone (LH) content in plasma of bilaterally ovariectomized (OVX) rats; assay type: in vivo; settings: oral 30 mg/kg, plasma LH 0-8 h
Description: The purpose of this test example is to measure the effect of compounds on luteinizing hormone (LH) in plasma of bilaterally ovariectomized (OVX) rats.
• CMCNa (30036365, Sinopharm Chemical Reagent Co., Ltd.); • Tween 80 (30189828, Sinopharm Chemical Reagent Co., Ltd.); • Rat LH ELISA Kit (S-type) purchased from Shibayagi Japan, with catalog number of AKRLH-010S, comprising Assay buffer C, Sample dilution buffer G, Washing buffer, biotinylated anti-LHα antibody, HRP-conjugated streptavidin and Chromogen (TMB).
Bilaterally ovariectomized SD rats, aged 10 weeks, female, purchased from Beijing Vital River Laboratory Animal Technology Co., Ltd. The animals were kept in SPF-grade animal room, with 5 SD rats/cage. […]
Sample detection: All reagents, samples and ELISA plates were transferred to room temperature 20° C.-25° C. and equilibrated for at least 30 min, and dissolution, vortex and centrifugation were performed for later use. […] The OD value of each well was read using the microplate reader at a wavelength of 450 nm.
Graphpad was used to draw a standard curve, and sample concentrations were calculated. If the dilution was performed during the sample detection, the calculated sample concentration needed to be multiplied by the corresponding dilution ratio in the final calculation, which was the actual concentration of the sample.

[4] = high humidity 92.5% RH, 10 days
[5] = high temperature 60° C., 5 days
[6] = high temperature 60° C., 10 days
[7] = high temperature and high humidity 50° C. 75% RH, 5 days
[8] = high temperature and high humidity 50° C. 75% RH, 10 days

crystal form change (XRPD) after moisture absorption and desorption ([1]; 2 cycles, 0-95% relative humidity)	hygroscopicity (in words) ([1]; RH 80%)	weight gain after moisture absorption ([1]; RH 80%)	% Increase in total impurity ([2]; high humidity 92.5% RH, 5 days) [%]	% Maximum increase in single impurity ([2]; high humidity 92.5% RH, 5 days) [%]	% Increase in total impurity [2, 4] [%]	% Maximum increase in single impurity [2, 4] [%]	% Increase in total impurity [2, 5] [%]	% Maximum increase in single impurity [2, 5] [%]	% Increase in total impurity [2, 6] [%]	% Maximum increase in single impurity [2, 6] [%]	% Increase in total impurity [2, 7] [%]	% Maximum increase in single impurity [2, 7] [%]	% Increase in total impurity [2, 8] [%]	% Maximum increase in single impurity [2, 8] [%]	% Increase in total impurity ([2]; illumination 5000 lx, 5 days) [%]	% Maximum increase in single impurity ([2]; illumination 5000 lx, 5 days) [%]	% Increase in total impurity ([2]; illumination 5000 lx, 10 days) [%]	% Maximum increase in single impurity ([2]; illumination 5000 lx, 10 days) [%]	Compound	ΣAUC (ΔLH/LH · h, Mean ± SD) [3]
no crystal form transformation	weak hygroscopicity	about 0.2720%	<0.02	0.06	<0.02	0.07	0.12	0.07	<0.02	0.07	<0.02	0.03	<0.02	<0.02	<0.02	0.03	<0.02	0.05	[2H]c1cc(C(=O)N2CCn3c(-c4nc(Cl)ns4)nnc3[C@H]2C)ccc1F [free base crystal form A, (R)-(3-(3-chloro-1,2,4-thiadiazol-5-yl)-8-methyl-5,6-dihydro-[1,2,4]triazolo[4,3-a]pyrazin-7(8H)-yl)(4-fluorophenyl-3-d)methanone]	
																			[2H]c1cc(C(=O)N2CCn3c(-c4nc(Cl)ns4)nnc3[C@H]2C)ccc1F [Compound 3, (R)-(3-(3-chloro-1,2,4-thiadiazol-5-yl)-8-methyl-5,6-dihydro-[1,2,4]triazolo[4,3-a]pyrazin-7(8H)-yl)(4-fluorophenyl-3-d)methanone]	−5.44 ± 3.02 ΔLH/LH · h
